From paper PMC12428754, “Testing Strategies for Metabolite-Mediated Neurotoxicity” (International Journal of Molecular Sciences, 2025)

Assays:
[1] = test system: hiPSC-derived immature human dorsal root ganglia neuron-like cells; test: PeriTox (UKN5a) neurite outgrowth assay; type: cell-based
Procedure: PeriTox assay was performed as previously described. In brief, cryopreserved hiPSC-derived immature human dorsal root ganglia neuron-like cells were thawed and plated at a density of 100,000 cells/cm^2 into matrigel-coated 96-well plates. The cells were cultured in 75 µL PeriTox differentiation medium (PDM) consisting of 25% KSR-S and 75% N2-S media supplemented with 1.5 µM CHIR99021, 1.5 µM SU5402, and 5 µM DAPT (KSR-S: knockout DMEM with 15% serum replacement, 1x Glutamax, 1x nonessential amino acids, and […] beta-mercaptoethanol; N2-S: DMEM/F12, with 2 mM Glutamax, 0.1 mg/mL apotransferrin, 1.55 mg/mL glucose, 25 µg/mL insulin, […] putrescine, 30 nM selenium, and 20 nM progesterone). After one hour, 25 µL PDM with 4x concentrated serial dilutions of the test compounds was added to the cells.
The image acquisition and analysis were conducted according to established protocols. The cells were stained with Hoechst H-33342 (1 µg/mL) to visualise nuclei and calcein-AM (1 µM) to label viable cell structures. Fluorescent images were acquired using an automated imaging system. An image analysis algorithm detected nuclei to define somatic regions, which were then excluded from the total calcein-positive area. The remaining signal was quantified as the neurite area.
In the first step, matched technical replicates were averaged. […] For visualisation, GraphPad Prism 9 was used. […]
Supplementary Figure S1: Comparison of data from the MitoMet test and the PeriTox test. A) Exposure scheme for the PeriTox test (UKN5a):
For testing, cryopreserved hiPSC-derived immature human dorsal root ganglia neuron-like cells were thawed and plated into 96-well plates. Cells were treated with toxicants at one h after plating. Neurite outgrowth and viability were determined at 24 h later, using automated high content imaging. B) Benchmark concentrations (BMC25) were calculated as a measure for “onset of toxicity” for the MitoMet (UKN4b; as described in Figure 1) and UKN5a assay. If no BMC could be determined, the highest tested concentration was used as surrogate endpoint. The arrows indicate the sensitivity shifts of parent vs metabolite in the respective assay. […]

[2] = test system: hiPSC-derived neural crest-like cells; test: cMINC (UKN2) neural crest cell migration assay; type: cell-based, human; settings: listed under the metabolite
Procedure: Figure 6 The transfer of the metabolisation module to the neural crest cell migration assay (cMINC). (A) A schematic of the cMINC (circular migration of neural crest cells) assay. The cells were seeded around a central stopper to create a cell-free circular area. Migration was initiated 24 h after seeding by removing the stopper. This is defined as the day of migration (DoM) 0. On DoM 1, the cells were exposed to toxicants. After 24 h of exposure, both cell migration and viability were quantified, using automated high-content imaging. (B) Compatibility of the metabolisation module (preincubation with 500 µg/mL S9 at 37 °C for 2 h) with the cMINC assay: The setup was as described in Figure 4 and as exemplified in Figure 5A. No compound was added (solvent control). The S9 mixture (at 500 µg/mL ± NADPH) was added to the normal cell culture medium of the cMINC assay (so that the addition was 10% of the total volume). Data are from three independent experiments. (C,D) The concentration-dependent effects on migration were evaluated for metabolite mixtures generated from bromethalin (C) or chlorfenapyr (D). […] The arrows indicate the direction of sensitivity shift between NADPH-dependent and -independent metabolite mixtures, with accompanying fold change values. The concentrations are given as nominal concentrations of the parent compound. Abbreviations: n.s., not significant. TEXT PRINTED IN THE PICTURE: (C) Bromethalin: x30 | (D) Chlorfenapyr: x15
The MINC assay was performed as previously described. Briefly, 96-well plates were prepared by inserting a central 2 mm diameter stopper (Platypus Technologies, Madison, WI, USA) into pre-coated wells with a composite poly-L-ornithine (PLO; 10 µg/mL), fibronectin (1 µg/mL), and laminin (1 µg/mL) matrix. […] After a further 24 h (DoM 2), cell migration and viability were assessed. […] High content imaging was performed, and data were analysed using the RingAssay V1 software (http://invitrotox.uni-konstanz.de/, accessed on 3 February 2025). […]

SMILES: O=C(c1ccccc1)c1ccc(O)cc1 [4-Hydroxybenzophenone]
- effect on peripheral neurite outgrowth ([1]; result in words): neither benzophenone nor its hydroxy metabolite showed any significant effect
- increase in potency of metabolite compared to parent (BMC25 ratio) [2]: over three

SMILES: N#Cc1c(-c2ccc(Cl)cc2)[nH]c(C(F)(F)F)c1Br [Tralopyril]
- parent/metabolite potency ratio (BMC25) ([1]; listed under the metabolite): 15
- increase in potency of metabolite compared to parent (BMC25 ratio) [2]: 28 fold
